Columns and labels:
[1] = test system: MCF7; assay: Cytotoxicity against human MCF7 cells assessed as cell viability by MTT assay; format: functional, cell-based
[2] = Cytotoxicity against human MDA-MB-435S cells assessed as cell viability by MTT assay; format: functional, cell-based
[3] = test system: A549; assay: Cytotoxicity against human A549 cells assessed as cell viability by MTT assay; format: functional, cell-based
[4] = test system: Vero; assay: Cytotoxicity against African green monkey Vero cells assessed as cell viability by MTT assay; format: cell-based; settings: Chlorocebus sabaeus
[5] = Chemical stability of the compound in phosphate buffered saline assessed as decomposition at pH 7; format: physicochemical; settings: read-out: Drug degradation
[6] = test system: MCF7; assay: Ratio of icaritin to compound for human MCF7 cells assessed as cell viability by MTT assay; format: functional
[7] = Ratio of icaritin to compound for human MDA-MB-435S cells assessed as cell viability by MTT assay; format: functional
[8] = test system: A549; assay: Ratio of icaritin to compound for human A549 cells assessed as cell viability by MTT assay; format: functional
[9] = test system: MCF7; assay: Ratio of tamoxifen to compound for human MCF7 cells assessed as cell viability by MTT assay; format: functional
[10] = Ratio of tamoxifen to compound for human MDA-MB-435S cells assessed as cell viability by MTT assay; format: functional
[11] = test system: A549; assay: Ratio of tamoxifen to compound for human A549 cells assessed as cell viability by MTT assay; format: functional

Row | SMILES | IC50 [1] | IC50 ([2]; Homo sapiens, MDA-MB-435S) | IC50 [3] | IC50 [4] | other results
1 | COc1ccc(-c2oc3c(CC=C(C)C)c(OCC(=O)O)cc(O)c3c(=O)c2OCC(=O)O)cc1 | > 100 µM | > 100 µM | > 100 µM | – | –
2 | CCOC(=O)C(C)Oc1cc(O)c2c(=O)c(O)c(-c3ccc(OC)cc3)oc2c1CC=C(C)C (racemic) | > 100 µM | 2.5 µM | 26.5 µM | 1.4 µM | degraded [5]: 25%
3 | CCOC(=O)C(C)Oc1c(-c2ccc(OC)cc2)oc2c(CC=C(C)C)c(O)cc(O)c2c1=O (racemic) | 4.7 µM | 4.1 µM | 4.6 µM | 6.5 µM | degraded [5]: 7%
4 | COc1ccc(-c2oc3c(CC=C(C)C)c(OCCCOC(=O)CCC(=O)O)cc(O)c3c(=O)c2OCCCOC(=O)CCC(=O)O)cc1 | > 100 µM | 6.4 µM | 18.4 µM | 14.5 µM | –
5 | COc1ccc(-c2oc3c(CC=C(C)C)c(OC(C)C(=O)O)cc(O)c3c(=O)c2O)cc1 (racemic) | > 100 µM | 5.7 µM | 15.3 µM | 19.3 µM | –
6 | COc1ccc(-c2oc3c(CC=C(C)C)c(OCC(=O)O)cc(O)c3c(=O)c2O)cc1 | > 100 µM | 13.5 µM | 16.7 µM | – | –
7 | CCOC(=O)CCCOc1c(-c2ccc(OC)cc2)oc2c(CC=C(C)C)c(O)cc(O)c2c1=O | 3 µM | 8.8 µM | 11 µM | 5.8 µM | –
8 | COc1ccc(-c2oc3c(CC=C(C)C)c(OC(C)C(=O)O)cc(O)c3c(=O)c2OC(C)C(=O)O)cc1 (stereo in doubt; 3b) | – | – | – | – | IC50 ([2]; mda-mb-435s): 26.7 µM
9 | COc1ccc(-c2oc3c(CC=C(C)C)c(OCCCOC(=O)CCCC(=O)O)cc(O)c3c(=O)c2OCCCOC(=O)CCCC(=O)O)cc1 | 2.2 µM | 8.1 µM | 14.3 µM | 6.3 µM | degraded [5]: 7%
10 | COc1ccc(-c2oc3c(CC=C(C)C)c(OCCCC(=O)O)cc(O)c3c(=O)c2O)cc1 | > 100 µM | 12.7 µM | 19.1 µM | – | –
11 | CC/C(=C(\c1ccccc1)c1ccc(OCCN(C)C)cc1)c1ccccc1 [TAMOXIFEN] | 3.8 µM | 5.5 µM | 8.4 µM | 5.7 µM | –
12 | COc1ccc(-c2oc3c(CC=C(C)C)c(OCCOC(=O)CCC(=O)O)cc(O)c3c(=O)c2OCCOC(=O)CCC(=O)O)cc1 | > 100 µM | 60.5 µM | > 100 µM | – | –
13 | COc1ccc(-c2oc3c(CC=C(C)C)c(OCCOC(=O)CCCC(=O)O)cc(O)c3c(=O)c2OCCOC(=O)CCCC(=O)O)cc1 | 3 µM | 6.3 µM | 6.1 µM | > 100 µM | degraded [5]: 7%
14 | CCOC(=O)C(Oc1c(-c2ccc(OC)cc2)oc2c(CC=C(C)C)c(O)cc(O)c2c1=O)C(=O)OCC | 17.2 µM | 4.4 µM | 19.3 µM | 4.4 µM | –
15 | CCOC(=O)COc1cc(O)c2c(=O)c(OCC(=O)OCC)c(-c3ccc(OC)cc3)oc2c1CC=C(C)C | > 100 µM | > 100 µM | > 100 µM | – | –
16 | COc1ccc(-c2oc3c(CC=C(C)C)c(O)cc(O)c3c(=O)c2OC(C)C(=O)O)cc1 (racemic) | > 100 µM | 7.5 µM | 40.7 µM | 36.6 µM | –
17 | COc1ccc(-c2oc3c(CC=C(C)C)c(OC/C=C/C(=O)O)cc(O)c3c(=O)c2OC/C=C/C(=O)O)cc1 | > 100 µM | 57.5 µM | > 100 µM | – | –
18 | COc1ccc(-c2oc3c(CC=C(C)C)c(OC/C=C/C(=O)O)cc(O)c3c(=O)c2O)cc1 | > 100 µM | 11.3 µM | 22.9 µM | – | –
19 | CCOC(=O)CCCOc1cc(O)c2c(=O)c(OCCCC(=O)OCC)c(-c3ccc(OC)cc3)oc2c1CC=C(C)C | > 100 µM | > 100 µM | > 100 µM | – | –

Row | SMILES | IC50 [1] | IC50 ([2]; Homo sapiens, MDA-MB-435S) | IC50 [3] | IC50 [4] | other results
20 | COc1ccc(-c2oc3c(CC=C(C)C)c(OC(C)C(=O)O)cc(O)c3c(=O)c2OC(C)C(=O)O)cc1 (stereo in doubt; 3c) | > 100 µM | – | > 100 µM | – | IC50 ([2]; mda-mb-435s): > 100 µM
21 | COc1ccc(-c2oc3c(CC=C(C)C)c(OCCCC(=O)O)cc(O)c3c(=O)c2OCCCC(=O)O)cc1 | > 100 µM | 31.1 µM | 26 µM | – | –
22 | CCOC(=O)/C=C/COc1cc(O)c2c(=O)c(OC/C=C/C(=O)OCC)c(-c3ccc(OC)cc3)oc2c1CC=C(C)C | > 100 µM | > 100 µM | > 100 µM | – | –
23 | CCOC(=O)C(Oc1cc(O)c2c(=O)c(OC(C(=O)OCC)C(=O)OCC)c(-c3ccc(OC)cc3)oc2c1CC=C(C)C)C(=O)OCC | > 100 µM | 85 µM | > 100 µM | – | –
24 | CCOC(=O)CCCOc1cc(O)c2c(=O)c(O)c(-c3ccc(OC)cc3)oc2c1CC=C(C)C | > 100 µM | > 100 µM | > 100 µM | – | –
25 | COc1ccc(-c2oc3c(CC=C(C)C)c(OC(C(=O)O)C(=O)O)cc(O)c3c(=O)c2OC(C(=O)O)C(=O)O)cc1 | > 100 µM | 78.9 µM | > 100 µM | – | –
26 | COc1ccc(-c2oc3c(CC=C(C)C)c(O)cc(O)c3c(=O)c2OC/C=C/C(=O)O)cc1 | 48.9 µM | 8.3 µM | 10.7 µM | 7.1 µM | –
27 | COc1ccc(-c2oc3c(CC=C(C)C)c(OCCO)cc(O)c3c(=O)c2OCCO)cc1 | > 100 µM | > 100 µM | > 100 µM | – | –
28 | COc1ccc(-c2oc3c(CC=C(C)C)c(O)cc(O)c3c(=O)c2O)cc1 [ICARITIN] | 7 µM | 24.9 µM | > 100 µM | 21.6 µM | –
29 | COc1ccc(-c2oc3c(CC=C(C)C)c(O)cc(O)c3c(=O)c2OCCCC(=O)O)cc1 | > 100 µM | 10 µM | 23.9 µM | 55.9 µM | –
30 | CCOC(=O)COc1c(-c2ccc(OC)cc2)oc2c(CC=C(C)C)c(O)cc(O)c2c1=O | > 100 µM | 30 µM | 65.2 µM | – | –
31 | CCOC(=O)C(C)Oc1cc(O)c2c(=O)c(OC(C)C(=O)OCC)c(-c3ccc(OC)cc3)oc2c1CC=C(C)C (single isomer, unassigned; diastereomer 2) | > 100 µM | > 100 µM | > 100 µM | – | –
32 | COc1ccc(-c2oc3c(CC=C(C)C)c(O)cc(O)c3c(=O)c2OCC(=O)O)cc1 | 82.5 µM | 17.8 µM | 43.4 µM | – | –
33 | CCOC(=O)COc1cc(O)c2c(=O)c(O)c(-c3ccc(OC)cc3)oc2c1CC=C(C)C | 27.9 µM | 5.3 µM | 41.6 µM | 1.4 µM | –
34 | CCOC(=O)/C=C/COc1cc(O)c2c(=O)c(O)c(-c3ccc(OC)cc3)oc2c1CC=C(C)C | > 100 µM | > 100 µM | > 100 µM | – | –
35 | COc1ccc(-c2oc3c(CC=C(C)C)c(OCCCO)cc(O)c3c(=O)c2OCCCO)cc1 | > 100 µM | 21.8 µM | > 100 µM | – | –
36 | CCOC(=O)/C=C/COc1c(-c2ccc(OC)cc2)oc2c(CC=C(C)C)c(O)cc(O)c2c1=O | 10.3 µM | 2.2 µM | 4.7 µM | 3.1 µM | Ratio [6]: 2.5; Ratio [7]: 2.5; Ratio [8]: 2.5; Ratio [9]: 2.5; Ratio [10]: 2.5; Ratio [11]: 2.5
37 | COc1ccc(-c2oc3c(CC=C(C)C)c(O)cc(O)c3c(=O)c2OC(C(=O)O)C(=O)O)cc1 | > 100 µM | > 100 µM | > 100 µM | – | –

From ChEMBL document CHEMBL3588841, “Synthesis and cancer cell growth inhibitory activity of icaritin derivatives” (Eur J Med Chem, 2015)
